How the values were obtained:
[1] = system: bone-tooth implant; details: treatment for 4 weeks (1 week before the operation and 3 weeks after); cited from earlier work
[2] = system: periprosthetic bone loss; details: treatment with higher doses; cited from earlier work
[3] = system: titanium implants and hydroxyl apatite-coated implants in the bone of 6 month-old Sprague Dawley rats; test: Time sequence of osseointegration of implants in rat femur (Example 1, histomorphometry); assay type: in vivo
Description: (§1) 6-month old female Spregue-Dawley rats were kept in cages and subjected to a 12-hour day and night rhythm. They had free access to food and water. The animals were kept and fed in accordance with legal regulations and the research was carried out with the approval and under the supervision of the Darmstadt Governmental Presidium.
(§2) The animals were divided at random among the various test groups. They were anaethesized by intraperitoneal administration of ketamine (75 mg/kg) and xylazine (5 mg/kg). Both back legs were sharped and disinfected with Betaisadonna solution. Medioparapatellar arthrotomy of the knee joint was carried out under aseptic conditions and the patella was laterally dislocated. The medullary canal was opened distally in the intercondylar notch and the canal was drilled with a 1.0 mm diameter Kirchner wire down to the proximal metaphysis of the femur. A titanium Kirchner wire was then inserted into the right femur and a hydroxyl apatite-coated Kirchner wire into the left femur as far as the proximal metaphysis. The access hole was closed with bone wax, the patella was replaced, the extensor apparatus of the refined leg was reconstructed, the soft tissue was adapted and the skin was closed by an intracutaneous seam. The back legs were then tested for normal post-operative movement. The animals were at liberty to move freely in their cages and the activity and the load on the hind legs was checked daily.
(§3) Ibandronate or 0.9% NaCl was administered daily as per Examples 1 and 2. After the preset treatment time the animals were euthanased in a carbon dioxide chamber and directly afterwards the two femurs were taken out, completely freed from soft tissue and fixed in alcohol for subsequent histerlogical treatment. […] Particular attention was given to the areas where a change in the bone occurred such as an increase or decrease in trabecular bone, a change in bone density, loosening seams on the implant, periostal or endostal changes. Evaluation in this case was purely descriptive.
(§4) Description of production of preparations by the cut microsection technique for producing histological sections of conventional non-cuttable tissue after Prof. Donath. (K. Donath, G. Breuner: A method for the study of undecalcified bones and teeth with attached soft tissue. The Saege-Schliff (sawing and grinding) technique., J. Oral Pathology 1982, 11:318-26). […]
(§5) Histological investigation of bones under the optical microscope gives knowledge about the overall structure and the distribution of bone components. […] Quantitative evaluation of the results was by histomorphometry.
(§6) The bone-covered area on the metal implant was shown and calculated by histomorphometry, using special software. […]

[4] = system: titanium implants and hydroxyl apatite-coated implants in the bone of 6-month old rats; test: Osseointegration of implants in rat femur at a defined time, daily versus bolus administration (Example 2); assay type: in vivo
Description: as §1, §2, §3, §4, §5, §6

In the case of O=P(O)(O)C(Cl)(Cl)P(=O)(O)O [Clodronate], the “Osteogenesis (bone formation) compared with untreated patients” value [1] is given as “more intensive”.

In the case of NCCCC(O)(P(=O)(O)O)P(=O)(O)O [alendronate], the Bone resorption [2] is given as “considerably slowed down”.

In the case of CCCCCN(C)CCC(O)(P(=O)(O)O)P(=O)(O)O [ibandronate, 1-hydroxy-3-(N-methyl-N-pentyl)aminopropyl-1,1-diphosphonic acid], the “Temporal advantage after treatment versus untreated group” value ([3]; 25 μg FAE/kg/d daily s.c.) is reported as “more than 50%”, the “Time to complete integration of the implant” value ([3]; 25 μg FAE/kg/d daily s.c., untreated group nearly complete ingrowth after 37 days) is reported as 18 days and the “Time to complete integration” value ([3]; daily dose of 20 to 30 μg/kg body weight (i.v. equivalent)) is reported as 15 to 20 days. For the same compound, the “Osseointegration compared with the untreated group” value ([3]; daily subcutaneous ibandronate after implantation, rats) was “appreciably improved”, the “Increase in osseointegration compared with the control group” value ([4]; 2a: s.c. 25 μg FAE/kg/d for 15-20 days) was 50% and the “Increase in osseointegration compared with the control group” value ([4]; 2b: s.c. bolus administration, 25 μg FAE/kg/d) was 50%. The “Difference in osseointegration between bolus-treated groups and control group” value ([4]; 2b: s.c. bolus administration, total dose of 1, 5 and 25 μg FAE/kg/d) was “Very significant differences” and the “Difference in osseointegration between bolus administration and cumulative administration” value ([4]; 2c: bolus versus cumulative administration over the entire period) was “No significant differences”.

From patent US6680307B1, “Use of ibandronate for promoting osseointegration of endoprostheses” (Roche Diagnostics GmbH, priority 1998, dated 2004)
